From PubChem BioAssay AID248 (DTP/NCI, 2004)
Several values for one entry are separate records, joined by “and”; a condition that tells them apart may be missing. Equal values may be shown once. Toxic doses and inconclusive results are not listed. No stated cut-off is given here; in the data, active means T/C of 150% or more; inactive means T/C below 125%.

System: L1210 leukemia ip in BDF1 mice, survival T/C
Assay: NCI In Vivo Anticancer Drug Screen. Data for tumor model L1210 Leukemia (intraperitoneal) in B6D2F1 (BDF1) mice
Conditions: endpoint: mean survival time, higher = longer survival
Outline: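 Antitumor effect is assessed in tumor-bearing animals. Survival in the compound arm is compared with a vehicle-dosed control arm and expressed as their quotient.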

[1] = dose: 100.0 mg/kg/injection, schedule: Q04DX003 (ip), vehicle: Klucel (hydroxypropylcellulose) (HPC)
[2] = dose: 200.0 mg/kg/injection, schedule: Q04DX003 (ip), vehicle: Klucel (hydroxypropylcellulose) (HPC)
[3] = dose: 400.0 mg/kg/injection, schedule: Q04DX003 (ip), vehicle: Klucel (hydroxypropylcellulose) (HPC)
[4] = dose: 100.0 mg/kg/injection, schedule: Q01DX009 (ip), vehicle: Klucel (hydroxypropylcellulose) (HPC)
[5] = dose: 200.0 mg/kg/injection, schedule: Q01DX009 (ip), vehicle: Klucel (hydroxypropylcellulose) (HPC)
[6] = dose: 400.0 mg/kg/injection, schedule: Q01DX009 (ip), vehicle: Klucel (hydroxypropylcellulose) (HPC)
[7] = dose: 100.0 mg/kg/injection, schedule: Q01DX001 (ip), vehicle: carboxymethylcellulose (CMC)
[8] = dose: 200.0 mg/kg/injection, schedule: Q01DX001 (ip), vehicle: carboxymethylcellulose (CMC)
[9] = dose: 100.0 mg/kg/injection, schedule: Q01DX001 (ip), vehicle: saline
[10] = dose: 200.0 mg/kg/injection, schedule: Q01DX001 (ip), vehicle: saline
[11] = dose: 400.0 mg/kg/injection, schedule: Q01DX001 (ip), vehicle: saline
[12] = dose: 100.0 mg/kg/injection, schedule: Q01DX009 (ip), vehicle: saline with Tween-80
[13] = dose: 200.0 mg/kg/injection, schedule: Q01DX009 (ip), vehicle: saline with Tween-80

Measured: T/C

CN(C)c1nn[nH]n1
inactive: [1] 95 % of control | [2] 88 % of control | [3] 95 % of control

Cc1ccc(NC(=O)Nc2ccccc2F)cc1Cl
inactive: [4] 111 % of control | [5] 97 % of control | [6] 92 % of control

O/N=C1\c2ccccc2-c2cc(Br)ccc21
inactive: [7] 95 % of control | [8] 95 % of control | dose: 400.0 mg/kg/injection, schedule: Q01DX001 (ip), vehicle: carboxymethylcellulose (CMC) 90 % of control

O=C(O)c1c(CN2CCOCC2)c(O)c(O)c(O)c1CN1CCOCC1
inactive: [9] 103 % of control | [10] 107 % of control | [11] 103 % of control

CCNC(C)(C)C(SS(=O)(=O)O)c1ccc(Cl)s1 (stereo not given)
inactive: [12] 96 % of control | dose: 100.0 mg/kg/injection, schedule: Q04DX003 (ip), vehicle: saline with Tween-80 102 % of control | [13] 90 % of control | dose: 200.0 mg/kg/injection, schedule: Q04DX003 (ip), vehicle: saline with Tween-80 96 % of control | dose: 400.0 mg/kg/injection, schedule: Q04DX003 (ip), vehicle: saline with Tween-80 92 % of control

NC(=O)/C=C/c1cccnc1
inactive: dose: 100.0 mg/kg/injection, schedule: Q04DX003 (ip), vehicle: saline 91 % of control | dose: 200.0 mg/kg/injection, schedule: Q04DX003 (ip), vehicle: saline 98 % of control | dose: 400.0 mg/kg/injection, schedule: Q04DX003 (ip), vehicle: saline 96 % of control

COc1ccc(/C=C/c2cnc3ccccc3n2)cc1OC
inactive: [4] 91 % of control | [1] 98 % of control | [5] 100 % of control | [2] 93 % of control | [6] 92 % of control | [3] 97 % of control

COc1ccc(Cl)cc1NC(=O)C(Cl)(Cl)Cl
inactive: dose: 50.0 mg/kg/injection, schedule: Q01DX001 (ip), vehicle: saline with Tween-80 102 % of control | dose: 100.0 mg/kg/injection, schedule: Q01DX001 (ip), vehicle: saline with Tween-80 88 % of control and 92 % of control | [12] 94 % of control | dose: 100.0 mg/kg/injection, schedule: Q04DX002 (ip), vehicle: saline with Tween-80 100 % of control and 101 % of control | dose: 200.0 mg/kg/injection, schedule: Q01DX001 (ip), vehicle: saline with Tween-80 91 % of control | [13] 95 % of control and 89 % of control | dose: 200.0 mg/kg/injection, schedule: Q04DX002 (ip), vehicle: saline with Tween-80 93 % of control and 98 % of control | dose: 400.0 mg/kg/injection, schedule: Q01DX001 (ip), vehicle: saline with Tween-80 89 % of control | dose: 400.0 mg/kg/injection, schedule: Q04DX002 (ip), vehicle: saline with Tween-80 93 % of control and 94 % of control

c1ccn2nncc2c1
inactive: [7] 103 % of control | [8] 90 % of control

S=P(NC1CCCCC1)(N1CC1)N1CC1
inactive: dose: 5.0 mg/kg/injection, schedule: Q01DX Z (ip), vehicle: carboxymethylcellulose (CMC) 122 % of control | dose: 20.0 mg/kg/injection, schedule: Q01DX Z (ip), vehicle: carboxymethylcellulose (CMC) 101 % of control

Cc1ccc(C)c(NC(=O)Oc2ccc(F)cc2Cl)c1
inactive: dose: 50.0 mg/kg/injection, schedule: Q01DX009 (ip), vehicle: Klucel (hydroxypropylcellulose) (HPC) 91 % of control | [4] 90 % of control | [1] 94 % of control | [5] 87 % of control | [2] 105 % of control

CCOC(=O)C(C)(CCC#N)C(=O)OCC
inactive: [9] 95 % of control | dose: 100.0 mg/kg/injection, schedule: Q04DX002 (ip), vehicle: saline 101 % of control | [10] 95 % of control | dose: 200.0 mg/kg/injection, schedule: Q04DX002 (ip), vehicle: saline 105 % of control | [11] 95 % of control | dose: 400.0 mg/kg/injection, schedule: Q04DX002 (ip), vehicle: saline 105 % of control
